Data on 1 molecule can be found in paper PMC1315280, “The Flavoring Agent Dihydrocoumarin Reverses Epigenetic Silencing and Inhibits Sirtuin Deacetylases” (PLoS Genetics, 2005).

For the experiment, the target named is T1, SIRT1 (Homo sapiens, UniProt Q96EB6).
T1 construct: recombinant SIRT1
T1 sequence (Q96EB6 2-747): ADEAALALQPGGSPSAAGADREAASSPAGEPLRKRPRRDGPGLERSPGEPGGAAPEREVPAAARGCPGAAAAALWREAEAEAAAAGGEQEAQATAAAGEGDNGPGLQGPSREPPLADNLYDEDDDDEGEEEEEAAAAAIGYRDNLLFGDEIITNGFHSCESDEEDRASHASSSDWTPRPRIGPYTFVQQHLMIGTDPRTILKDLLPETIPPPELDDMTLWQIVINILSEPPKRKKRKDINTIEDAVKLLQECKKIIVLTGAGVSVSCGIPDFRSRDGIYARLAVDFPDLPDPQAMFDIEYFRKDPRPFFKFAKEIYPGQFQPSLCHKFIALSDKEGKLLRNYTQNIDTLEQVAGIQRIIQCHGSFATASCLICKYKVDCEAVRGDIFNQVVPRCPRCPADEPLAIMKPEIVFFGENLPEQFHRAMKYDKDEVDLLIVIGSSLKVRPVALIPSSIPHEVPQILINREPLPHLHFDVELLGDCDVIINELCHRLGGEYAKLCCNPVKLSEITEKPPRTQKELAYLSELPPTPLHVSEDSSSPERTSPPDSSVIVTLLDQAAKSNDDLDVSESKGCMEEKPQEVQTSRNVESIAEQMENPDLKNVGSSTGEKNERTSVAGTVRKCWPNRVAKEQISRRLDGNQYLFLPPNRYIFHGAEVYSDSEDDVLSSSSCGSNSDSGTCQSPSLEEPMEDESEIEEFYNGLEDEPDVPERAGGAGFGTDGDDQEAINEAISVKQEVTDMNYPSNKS
Briefly: in vitro deacetylase assay with recombinant enzyme and [3H] acetylated histone H4 peptide. It is filed as biochemical.

Regarding `O=C1CCc2ccccc2O1` [DHC, dihydrocoumarin], the IC50 is 208 µM.

Usually IC50 stands for the concentration that gives 50% inhibition.
